Patent US20220296573A1, “NOVEL COMPOUNDS AND PHARMACEUTICAL COMPOSITIONS THEREOF FOR THE TREATMENT OF INFLAMMATORY DISORDERS” (Galapagos NV, priority 2019, published 2022)

Tested on: CL097 triggered IFNα release in human whole blood
Assay: Ex vivo human IFNα release inhibition (whole blood assay)
Type: cell-based
Settings: CL097 2 μg/mL, 3 h 30 min
Description: The aim of the assay is to evaluate the activity of compounds of the invention on the activated TLR/IRAK-4 pathway in an ex vivo human whole blood setting. Toll-like receptors (TLRs) are pattern recognition receptors that recognize a wide variety of microbial molecules, called pathogen-associated molecular patterns (PAMPs). Human TLR7 and TLR8 recognize imidazoquinoline compounds (e.g., CL097—CAS n #1026249-18-2) and single stranded RNAs as their natural ligands. Activation of TLRs leads to the production of several cytokines (e.g., IFNα, TNFα, IL-8, IL-6) by the TLR agonist-treated cells, whereas IRAK4 leads to the production of IFNα. Cytokine release is used as readout in this assay and represents a measure for the level of inhibition of the TLR/IRAK-4 pathway by the tested compound. It should be noted that in the context of the complete organism, other sources for these cytokines exist that are not dependent on the TLR/IRAK-4 pathway, such as e.g., macrophages (upon activation of the Fcγ receptor (Yan et al. 2012)) or T cells (upon activation of the T cell receptor (Brehm, Daniels, and Welsh 2005)).
Blood is collected from healthy volunteers into lithium heparin tubes by venipuncture, then gently inverted several times to prevent clotting and incubated for at least 15 min at 37° C. on a rocking mixer shaker. Then, 100 μL of blood is dispensed into polypropylene 96-well microplate and pre-incubated in duplicate with 0.3% DMSO or test compound at different concentrations (from 30 to 0.01 μM, 3-fold dilutions to get 0.3% DMSO at the final) for 15 min at 37° C. After this pre-incubation, blood is triggered with CL097 (2 μg/mL from 1 mg/mL solution in water; InvivoGen, tlr1-c97) for 3 h 30 min at 37° C. Microtubes are centrifuged at 5000×g for 10 min at 4° C. and approximately 40 μL of plasma are collected into a polystyrene 96-well plate. Plasma can be analyzed freshly, within 30 min after triggering, or frozen at −80° C. Finally, the quantification of IFNα and IFNα were performed in the plasma using AlphaLISA Kit for […] according to the manufacturer's instructions and read on the Ensight (PerkinElmer).
A standard curve was created by plotting on log-log the mean absorbance on the y-axis against the concentration on the x-axis and a 4PL was made through the points. For each blood sample, the IFNα concentrations of the samples were determined from the fit.
Data were then expressed as a percentage of inhibition (PIN) for each replicate using the formula:
With mean IFNα with CL097=mean IFNα concentration of replicate samples triggered with CL097; IFNαsample1=IFNα concentration of sample 1; mean IFNα with vehicle=mean IFNα concentration of replicate samples treated with vehicle.
Curve fitting for pIC50 determination were generated using mean PIN±sem. Graphs and pIC50 calculations were derived using Prism 5.03 software (GraphPad).

Row | SMILES | IC50 [µM]
1 | COc1cc2nc(C3COCCO3)cn2cc1NC(=O)c1cccn(C2CC2)c1=O (single isomer, unassigned) [Compound 8, 1-cyclopropyl-N-[2-(1,4-dioxan-2-yl)-7-methoxy-imidazo[1,2-a]pyridin-6-yl]-2-oxo-pyridine-3-carboxamide] | 0.0001 to 0.5
2 | COc1cc2nc(C3CCOCC3)cn2cc1NC(=O)c1cccn(C2CC2)c1=O [Compound 3, (1-cyclopropyl-N-[7-methoxy-2-(oxan-4-yl)imidazo[1,2-a]pyridin-6-yl]-2-oxopyridine-3-carboxamide)] | 0.5 to 1
3 | NC(=O)c1cc2nc(C3COCCO3)cn2cc1NC(=O)c1cccc(C(F)(F)F)n1 (stereo not shown) [Compound 6, 2-(1,4-dioxan-2-yl)-6-[[6-(trifluoromethyl)pyridine-2-carbonyl]amino]imidazo[1,2-a]pyridine-7-carboxamide] | 1 to 5
4 | COc1cc2nc(C3CCOCC3)cn2cc1NC(=O)c1cccc(C(F)(F)F)n1 [Compound 2, N-(7-methoxy-2-tetrahydropyran-4-yl-imidazo[1,2-a]pyridin-6-yl)-6-(trifluoromethyl)pyridine-2-carboxamide] | > 5
5 | CC(F)(F)c1cccc(C(=O)Nc2cn3cc(C4COCCO4)nc3cc2C(N)=O)n1 (stereo not shown) [Compound 11, 6-(6-(1,1-difluoroethyl)picolinamido)-2-(1,4-dioxan-2-yl)imidazo[1,2-a]pyridine-7-carboxamide] | 0.5 to 1
6 | COc1cc2nc(C3CCS(=O)(=O)CC3)cn2cc1NC(=O)c1cccn(C2CC2)c1=O [Compound 23, 1-cyclopropyl-N-(2-(1,1-dioxidotetrahydro-2H-thiopyran-4-yl)-7-methoxyimidazo[1,2-a]pyridin-6-yl)-2-oxo-1,2-dihydropyridine-3-carboxamide] | 0.0001 to 0.5
7 | COc1cc2nc(C3COCCO3)cn2cc1NC(=O)c1cccn(C2CCC2)c1=O (stereo not shown) [Compound 5, 1-cyclobutyl-N-[2-(1,4-dioxan-2-yl)-7-methoxy-imidazo[1,2-a]pyridin-6-yl]-2-oxo-pyridine-3-carboxamide] | 1 to 5
8 | COc1cc2nc(C3COCCO3)cn2cc1NC(=O)c1cccn(C2CC2)c1=O (racemic) [Compound 1, 1-cyclopropyl-N-[2-(1,4-dioxan-2-yl)-7-methoxy-imidazo[1,2-a]pyridin-6-yl]-2-oxo-pyridine-3-carboxamide] | 0.0001 to 0.5
9 | CNC(=O)c1cc2nc(C3COCCO3)cn2cc1NC(=O)c1cccc(C(F)(F)F)n1 (stereo not shown) [Compound 9, 2-(1,4-dioxan-2-yl)-N-methyl-6-(6-(trifluoromethyl)picolinamido)imidazo[1,2-a]pyridine-7-carboxamide] | 1 to 5
10 | COc1cc2nc(C3COCCO3)cn2cc1NC(=O)c1cccn(C2CC2)c1=O (single isomer, unassigned) [Compound 7, 1-cyclopropyl-N-[2-(1,4-dioxan-2-yl)-7-methoxy-imidazo[1,2-a]pyridin-6-yl]-2-oxo-pyridine-3-carboxamide] | 0.0001 to 0.5
